In paper PMC11078746 (Nature, 2024):
Values joined by “and” are separate entries in the source; they are usually repeats but may differ in a detail not shown here. Equal entries are not always repeated.

System: SW48 xenografts
Test: SW48 cell-derived xenograft efficacy, HRO761 orally once daily
Format: in vivo, mouse
Experimental: All animal studies were conducted in accordance with ethics and procedures covered by permit BS-2275 and BS-1975 issued by the Kantonales Veterinäramt Basel-Stadt and in strict adherence to guidelines of the Eidgenössisches Tierschutzgesetz and the Eidgenössische Tierschutzverordnung, Switzerland. All animal studies were approved by the internal ethics committee. All animals had access to food and water ad libitum and were identified with transponders. They were housed in a specific-pathogen-free facility in IVC racks under a 12 h–12 h light–dark cycle. To establish cell-line-derived xenograft models, 6–7-week-old female athymic nude (Crl:NU(NCr)-Foxn1^nu) or SCID-BEIGE (CB17.Cg-PrkdcscidLystbg-J/Crl) mice from Charles River were engrafted subcutaneously with 5 million tumour cells in HBSS (H6648, Sigma-Aldrich). For SNU-407, Lovo, IM95, RL95.2, Ishikawa and IGROV-1, the cells were concentrated in 50% Matrigel (354234, Corning). Patient-derived xenografts were induced and expanded by transplantation as previously described. […] For the efficacy experiment, mice were randomized into groups (n = 5–6) for a mean tumour size of 100–150 mm^3. […] Blood samples were collected on day 7 and 91. […] Tumour responses are reported with the measures of tumour volumes from the treatment start. […] Animals were randomized (n = 3) and tumour samples were collected at 0, 1, 4, 8 and 24 h on the first day and then collected 4 h after the last treatment on day 3, 8, 10, 14 (including a 24 h timepoint), 17 and 21. Tumours were excised, weighed, either frozen in liquid nitrogen and cryogenic dry pulverized with the CryoPrep system (model CP-02, Covaris) or processed to FFPE after fixation. […] On day 12, blood samples were collected for PK analysis. On the last day (3 h after the last treatment), tumours were excised, weighed, frozen in liquid nitrogen and cryogenic dry pulverized for PD analysis.

In the case of CCc1c(N2CCN(C(=O)c3ncnc(C)c3O)CC2)c(=O)n2nc(C3=CCOCC3)nc2n1CC(=O)Nc1ccc(C(F)(F)F)cc1Cl [HRO761], the “Mean TVol” value (HRO761 60mg/kg, day 14 post 1st dose) is reported as 143.74 mm3, the “TVol, individual mouse” value (HRO761 60mg/kg, day 14 post 1st dose, 60 mg/kg) is reported as 168.86 mm3 and 112.65 mm3 and 68.51 mm3 and 225.46 mm3 and 143.2 mm3 and the “Mean TVol” value (HRO761 60mg/kg, day 17 post 1st dose) is reported as 92.17 mm3. The “TVol, individual mouse” value (HRO761 60mg/kg, day 17 post 1st dose, 60 mg/kg) was 122.04 mm3 and 68.7 mm3 and 47.51 mm3 and 127.77 mm3 and 94.82 mm3, the “Mean TVol” value (HRO761 60mg/kg, day 21 post 1st dose) was 94.01 mm3 and the “TVol, individual mouse” value (HRO761 60mg/kg, day 21 post 1st dose, 60 mg/kg) was 102.4 mm3 and 77.05 mm3 and 73.43 mm3 and 131.39 mm3 and 85.79 mm3. The “Mean TVol” value (HRO761 60mg/kg, day 24 post 1st dose) was 58.88 mm3, the “TVol, individual mouse” value (HRO761 60mg/kg, day 24 post 1st dose, 60 mg/kg) was 71.44 mm3 and 52.46 mm3 and 38.57 mm3 and 82.39 mm3 and 49.52 mm3 and the “Mean TVol” value (HRO761 60mg/kg, day 28 post 1st dose) was 51.50 mm3. For the same compound, the “TVol, individual mouse” value (HRO761 60mg/kg, day 28 post 1st dose, 60 mg/kg) was 56.2 mm3 and 60.49 mm3 and 22.48 mm3 and 76.24 mm3 and 42.11 mm3, the “Mean TVol” value (HRO761 60mg/kg, day 31 post 1st dose) was 37.85 mm3 and the “Mean TVol” value (HRO761 60mg/kg, day 35 post 1st dose) was 35.63 mm3. The “Mean TVol” value (HRO761 60mg/kg, day 38 post 1st dose) was 32.12 mm3, the “Mean TVol” value (HRO761 60mg/kg, day 42 post 1st dose) was 26.69 mm3 and the “Mean TVol” value (HRO761 60mg/kg, day 45 post 1st dose) was 28.41 mm3. For the same compound, the “Mean TVol” value (HRO761 60mg/kg, day 49 post 1st dose) was 28.59 mm3, the “Mean TVol” value (HRO761 60mg/kg, day 52 post 1st dose) was 39.66 mm3 and the “Mean TVol” value (HRO761 60mg/kg, day 56 post 1st dose) was 41.29 mm3. For the same compound, the “Mean TVol” value (HRO761 60mg/kg, day 59 post 1st dose) was 58.21 mm3, the “Mean TVol” value (HRO761 60mg/kg, day 63 post 1st dose) was 63.07 mm3 and the “Mean TVol” value (HRO761 60mg/kg, day 66 post 1st dose) was 73.43 mm3. The “Mean TVol” value (HRO761 60mg/kg, day 70 post 1st dose) was 92.32 mm3, the “Mean TVol” value (HRO761 60mg/kg, day 73 post 1st dose) was 100.10 mm3 and the “Mean TVol” value (HRO761 60mg/kg, day 76 post 1st dose) was 118.12 mm3. For the same compound, the “Mean TVol” value (HRO761 60mg/kg, day 79 post 1st dose) was 144.54 mm3, the “Mean TVol” value (HRO761 60mg/kg, day 83 post 1st dose) was 167.90 mm3 and the “Mean TVol” value (HRO761 60mg/kg, day 86 post 1st dose) was 197.43 mm3. For the same compound, the “Mean TVol” value (HRO761 60mg/kg, day 90 post 1st dose) was 250.29 mm3, the “Mean TVol” value (HRO761 60mg/kg, day 92 post 1st dose) was 257.93 mm3 and the “Mean TVol” value (HRO761 120mg/kg, day 0 post 1st dose) was 148.61 mm3. For the same compound, the “Mean TVol” value (HRO761 120mg/kg, day 3 post 1st dose) was 165.08 mm3, the “Mean TVol” value (HRO761 120mg/kg, day 7 post 1st dose) was 155.01 mm3 and the “Mean TVol” value (HRO761 120mg/kg, day 10 post 1st dose) was 143.90 mm3. For the same compound, the “Mean TVol” value (HRO761 120mg/kg, day 14 post 1st dose) was 109.57 mm3, the “TVol, individual mouse” value (HRO761 120mg/kg, day 14 post 1st dose, 120 mg/kg) was 89.55 mm3 and 116.21 mm3 and 96.68 mm3 and 110.56 mm3 and 134.85 mm3 and the “Mean TVol” value (HRO761 120mg/kg, day 17 post 1st dose) was 76.89 mm3. For the same compound, the “TVol, individual mouse” value (HRO761 120mg/kg, day 17 post 1st dose, 120 mg/kg) was 65.99 mm3 and 76.61 mm3 and 69.65 mm3 and 76.31 mm3 and 95.9 mm3, the “Mean TVol” value (HRO761 120mg/kg, day 21 post 1st dose) was 60.65 mm3 and the “TVol, individual mouse” value (HRO761 120mg/kg, day 21 post 1st dose, 120 mg/kg) was 36.03 mm3 and 67.66 mm3 and 49.83 mm3 and 57.7 mm3 and 92.01 mm3. For the same compound, the “Mean TVol” value (HRO761 120mg/kg, day 24 post 1st dose) was 40.88 mm3, the “TVol, individual mouse” value (HRO761 120mg/kg, day 24 post 1st dose, 120 mg/kg) was 38.27 mm3 and 45.09 mm3 and 38.11 mm3 and 31.94 mm3 and 50.97 mm3 and the “Mean TVol” value (HRO761 120mg/kg, day 28 post 1st dose) was 35.35 mm3. The “TVol, individual mouse” value (HRO761 120mg/kg, day 28 post 1st dose, 120 mg/kg) was 32.65 mm3 and 37.62 mm3 and 34.55 mm3 and 23.01 mm3 and 48.93 mm3, the “Mean TVol” value (HRO761 120mg/kg, day 31 post 1st dose) was 23.02 mm3 and the “Mean TVol” value (HRO761 120mg/kg, day 35 post 1st dose) was 18.60 mm3. For the same compound, the “Mean TVol” value (HRO761 120mg/kg, day 38 post 1st dose) was 15.04 mm3, the “Mean TVol” value (HRO761 120mg/kg, day 42 post 1st dose) was 15.24 mm3 and the “Mean TVol” value (HRO761 120mg/kg, day 45 post 1st dose) was 22.14 mm3. The “Mean TVol” value (HRO761 120mg/kg, day 49 post 1st dose) was 17.54 mm3, the “Mean TVol” value (HRO761 120mg/kg, day 52 post 1st dose) was 14.62 mm3 and the “Mean TVol” value (HRO761 120mg/kg, day 56 post 1st dose) was 23.36 mm3. For the same compound, the “Mean TVol” value (HRO761 120mg/kg, day 59 post 1st dose) was 24.12 mm3, the “Mean TVol” value (HRO761 120mg/kg, day 63 post 1st dose) was 25.71 mm3 and the “Mean TVol” value (HRO761 120mg/kg, day 66 post 1st dose) was 34.04 mm3. For the same compound, the “Mean TVol” value (HRO761 120mg/kg, day 70 post 1st dose) was 39.42 mm3, the “Mean TVol” value (HRO761 120mg/kg, day 73 post 1st dose) was 45.77 mm3 and the “Mean TVol” value (HRO761 120mg/kg, day 76 post 1st dose) was 45.68 mm3. For the same compound, the “Mean TVol” value (HRO761 120mg/kg, day 79 post 1st dose) was 54.31 mm3, the “Mean TVol” value (HRO761 120mg/kg, day 83 post 1st dose) was 66.91 mm3 and the “Mean TVol” value (HRO761 120mg/kg, day 86 post 1st dose) was 85.46 mm3. For the same compound, the “Mean TVol” value (HRO761 120mg/kg, day 90 post 1st dose) was 91.43 mm3, the “Mean TVol” value (HRO761 120mg/kg, day 92 post 1st dose) was 94.97 mm3 and the Best average response (SW48, colorectal carcinoma, 60 or 120 mg/kg) was -90. For the same compound, the tumour regressions (higher doses than 20 mg per kg, once daily oral, up to 60 days) was 75–90%.
